How the values were obtained:
c-Myc = c-Myc activity (Table I, biological activities); set-up: key: + (less active); ++ (active); +++ (most active)
SUMO = molecular target: T1, SUMO (Homo sapiens, UniProt Q9UBT2); experiment: SUMO activity (Table I, biological activities); format: biochemical; set-up: key: + (less active); ++ (active); +++ (most active)
T1 sequence (Q9UBT2 1-640): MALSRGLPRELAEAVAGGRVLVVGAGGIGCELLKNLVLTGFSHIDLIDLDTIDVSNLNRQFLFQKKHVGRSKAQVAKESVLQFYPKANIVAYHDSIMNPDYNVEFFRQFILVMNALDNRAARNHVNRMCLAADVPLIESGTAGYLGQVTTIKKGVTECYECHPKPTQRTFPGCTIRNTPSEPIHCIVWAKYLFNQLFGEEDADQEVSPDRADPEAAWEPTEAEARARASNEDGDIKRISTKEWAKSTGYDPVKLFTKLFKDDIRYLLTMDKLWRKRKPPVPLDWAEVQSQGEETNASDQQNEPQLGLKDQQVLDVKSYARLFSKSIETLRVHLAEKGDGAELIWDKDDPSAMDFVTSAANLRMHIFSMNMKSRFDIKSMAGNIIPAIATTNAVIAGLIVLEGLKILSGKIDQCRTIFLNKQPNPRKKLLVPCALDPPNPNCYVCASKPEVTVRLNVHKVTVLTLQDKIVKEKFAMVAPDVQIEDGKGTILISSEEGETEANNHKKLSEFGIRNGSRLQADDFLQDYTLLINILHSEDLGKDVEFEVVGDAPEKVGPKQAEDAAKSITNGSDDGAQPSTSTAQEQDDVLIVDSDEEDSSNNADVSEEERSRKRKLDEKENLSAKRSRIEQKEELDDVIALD
T1 sequence (Q9UBE0 1-346 partner): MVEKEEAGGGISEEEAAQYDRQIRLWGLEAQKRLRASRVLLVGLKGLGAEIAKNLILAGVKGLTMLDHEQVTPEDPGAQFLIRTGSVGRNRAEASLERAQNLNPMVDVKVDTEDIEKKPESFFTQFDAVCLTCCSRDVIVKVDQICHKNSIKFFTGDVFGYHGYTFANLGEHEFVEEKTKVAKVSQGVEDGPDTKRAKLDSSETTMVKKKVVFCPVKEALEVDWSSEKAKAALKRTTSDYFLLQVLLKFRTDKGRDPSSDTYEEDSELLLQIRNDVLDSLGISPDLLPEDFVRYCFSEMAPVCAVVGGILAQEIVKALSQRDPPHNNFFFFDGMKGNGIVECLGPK

Structure (SMILES)	SUMO (SUMO)	c-Myc (c-Myc)
COC(=O)C1=C(C(=O)NC2CCN(C(=O)NCC3CCCO3)CC2)C2C=CC1(C(Cc1ccccc1)Nc1ccccc1)O2 (stereo not drawn) [Compound 382]	++	+
C=CCCC(Nc1ccccc1)C12C=CC(O1)C(C(N)=O)=C2C(=O)OC (stereo not drawn) [Compound 177]	+	+
COC(=O)C1=C(C(=O)NC2CCN(Cc3ccccc3)CC2)C2CCC1(C(Cc1ccccc1)Nc1ccccc1)O2 (stereo not drawn) [Compound 369]	+	+
COC(=O)C1=C(C(=O)Nc2ccc(CN3CCN(C)CC3)cc2)C2C=CC1(C(Cc1ccccc1)Nc1ccccc1)O2 (stereo not drawn) [Compound 504]	++	+
CCOC(=O)C1=C(C(=O)Nc2ccccc2OC)C2C=CC1(C(Nc1ccccc1)c1ccc(CN3CCOCC3)cc1)O2 (stereo not drawn) [Compound 597]	+	++
CCOC(=O)C1=C(C(=O)Nc2ccccc2Oc2ccccc2)C2C=CC1(C(Nc1ccccc1)c1ccc(CN3CCOCC3)cc1)O2 (stereo not drawn) [Compound 608]	+	+
COC(=O)C1=C(C(=O)Nc2ccc(CN3CCOCC3)cc2)C2C=CC1(C(Cc1ccccc1)Nc1ccccc1)O2 (stereo not drawn) [Compound 507]	++	+
CCOC(=O)C1=C(C(=O)Nc2ccc(C)c(F)c2)C2C=CC1(C(Nc1ccc(C)cc1)c1ccc(CN3CCOCC3)cc1)O2 (stereo not drawn) [Compound 613]	+	+
COC(=O)C1=C(C(=O)Nc2ccc(N3CCN(C)CC3)cc2)C2CCC1(C(Cc1ccccc1)Nc1ccccc1)O2 (stereo not drawn) [Compound 371]	+	+
COC(=O)C1=C(C(=O)NC2CCN(C(=O)c3ccc(Cl)s3)CC2)C2C=CC1(C(Cc1ccccc1)Nc1ccccc1)O2 (stereo not drawn) [Compound 392]	++	+
COC(=O)C1=C(C(=O)NC2CCN(C(=O)c3ccc(Cl)cc3)CC2)C2C=CC1(C(Cc1ccccc1)Nc1ccccc1)O2 (stereo not drawn) [Compound 380]	++	+
CCCCC(Nc1cc(F)cc(F)c1)C12C=CC(O1)C(C(=O)OC)=C2C(=O)OC (stereo not drawn) [Compound 212]	+++	+
COC(=O)C1=C(C(=O)NC2CCN(S(=O)(=O)c3ccccc3)CC2)C2C=CC1(C(Cc1ccccc1)Nc1ccccc1)O2 (stereo not drawn) [Compound 358]	+	+
COC(=O)C1=C(C(=O)NC2CCN(C(C)C)CC2)C2CCC1(C(Cc1ccccc1)Nc1ccccc1)O2 (stereo not drawn) [Compound 366]	+	+
COC(=O)C1=C(C(=O)Nc2ccc(CN3CCCC3)cc2)C2C=CC1(C(Cc1ccccc1)Nc1ccccc1)O2 (stereo not drawn) [Compound 508]	++	+
CC(C)(C)OC(=O)C1=C(C(=O)OC(C)(C)C)C2(C(Cc3ccccc3)Nc3ccc(F)cc3F)C=CC1O2 (stereo not drawn) [Compound 313]	+++	+
CCOC(=O)C1=C(C(=O)Nc2ccc(C)c(F)c2)C2C=CC1(C(Nc1cccc(OC)c1)c1ccc(CN3CCOCC3)cc1)O2 (stereo not drawn) [Compound 615]	+	+
CCOC(=O)C1=C(C(=O)Nc2ccc(C)c(F)c2)C2C=CC1(C(Nc1ccccc1)c1ccc(CN3CCOCC3)cc1)O2 (stereo not drawn) [Compound 558]	+	+
COC(=O)C1=C(C(=O)Nc2ccc(OC)cc2)C2OC1(C(Cc1ccccc1)Oc1ccccc1)C1OC21 (stereo not drawn) [Compound 522]	+	+
COC(=O)C1=C(C(N)=O)C2C=CC1(C(Nc1ccccc1)C1CCC1)O2 (stereo not drawn) [Compound 179]	+	+
COC(=O)C1=C(C(=O)NCc2ccccn2)C2OC1(C(Cc1ccccc1)Oc1ccccc1)C1OC21 (stereo not drawn) [Compound 547]	++	++
COC(=O)C1=C(C(=O)NC2CCN(C(=O)c3ccc(F)cc3)CC2)C2C=CC1(C(Cc1ccccc1)Nc1ccccc1)O2 (stereo not drawn) [Compound 297]	++	++
CCOC(=O)C1=C(C(=O)Nc2ccc(C)nc2)C2C=CC1(C(Nc1ccccc1)c1ccc(CN3CCOCC3)cc1)O2 (stereo not drawn) [Compound 573]	+	+

More lines, main results first:

SUMO (SUMO)	Structure (SMILES)	c-Myc (c-Myc)
++	COC(=O)C1=C(C(=O)NC2CCN(C(=O)OC(C)(C)C)CC2)C2C=CC1(C(Cc1ccccc1)Nc1cc(F)cc(F)c1)O2 (stereo not drawn) [Compound 242]	+
++	COC(=O)C1=C(C(=O)NNc2ccccn2)C2C=CC1(C(Cc1ccccc1)Nc1ccccc1)O2 (stereo not drawn) [Compound 221]	+
+++	COC(=O)C1=C(C(=O)NCCN(C)C)C2C=CC1(C(Cc1ccccc1)Nc1cc(F)cc(Cl)c1)O2 (stereo not drawn) [Compound 227]	+
++	COC(=O)C1=C(C(=O)NCc2ccncc2)C2C=CC1(C(Cc1ccccc1)Nc1ccccc1)O2 (stereo not drawn) [Compound 201]	+
++	CCOc1cccc(NC(Cc2ccccc2)C23C=CC(O2)C(C(=O)Nc2ccncc2)=C3C(=O)OC)c1 (stereo not drawn) [Compound 253]	+
++	COC(=O)C1=C(C(=O)Nc2ccccc2C)C2C=CC1(C(Cc1ccccc1)Nc1ccccc1)O2 (stereo not drawn) [Compound 360]	+
+++	COC(=O)C1=C(C(=O)Nc2ccc(OC)cc2)C2C=CC1(C(Cc1ccccc1)Nc1cc(F)cc(F)c1)O2 (stereo not drawn) [Compound 204]	+
+++	COC(=O)C1=C(C(=O)NCCN(C)C)C2C=CC1(C(Cc1ccccc1)Nc1ccccc1)O2 (stereo not drawn) [Compound 224]	++
+	COC(=O)C1=C(C(=O)NC(C)(C)C)C2C=CC1(C(Cc1ccccc1)Nc1ccccc1)O2 (stereo not drawn) [Compound 161]	+
+++	COC(=O)C1=C(C(=O)NC2CCNCC2)C2C=CC1(C(Cc1ccccc1)Nc1ccccc1)O2 (stereo not drawn) [Compound 225]	++
++	COC(=O)C1=C(C(=O)NC2CCN(C(=O)C3CC3)CC2)C2C=CC1(C(Cc1ccccc1)Nc1ccccc1)O2 (stereo not drawn) [Compound 377]	+
++	COC(=O)C1=C(C(=O)NC2CCN(C(=O)c3c(C)cccc3C)CC2)C2C=CC1(C(Cc1ccccc1)Nc1ccccc1)O2 (stereo not drawn) [Compound 381]	+
++	COC(=O)C1=C(C(=O)NC2CCN(C)CC2)C2C=CC1(C(Cc1ccccc1)Nc1cc(F)cc(F)c1)O2 (stereo not drawn) [Compound 240]	+
+++	COC(=O)C1=C(C(=O)NC2CCN(C)CC2)C2C=CC1(C(Cc1ccccc1)Nc1ccccc1)O2 (stereo not drawn) [Compound 195]	++
++	COC(=O)C1=C(C(=O)NCCNC(=O)Nc2ccccc2)C2C=CC1(C(Cc1ccccc1)Nc1ccccc1)O2 (stereo not drawn) [Compound 395]	+
++	CCN(CC)CCNC(=O)C1=C(C(=O)OC)C2(C(Cc3ccc(C)cc3)Nc3cc(F)cc(F)c3)C=CC1O2 (stereo not drawn) [Compound 430]	++
++	CCN(CC)CCNC(=O)C1=C(C(=O)OC)C2(C(Cc3ccccc3)Nc3cccc(F)c3)C=CC1O2 (stereo not drawn) [Compound 421]	++
++	COC(=O)C1=C(C(=O)NCCCN(C)C)C2C=CC1(C(Cc1ccccc1)Nc1ccccc1)O2 (stereo not drawn) [Compound 389]	+
+++	COC(=O)CNC(=O)C1=C(C(=O)OC)C2(C(Cc3ccccc3)Nc3cc(F)cc(F)c3)C=CC1O2 (stereo not drawn) [Compound 245]	++
++	COC(=O)C1=C(C(=O)NCCN(C)C)C2C=CC1(C(Cc1ccccc1)Oc1ccccc1)O2 (stereo not drawn) [Compound 438]	++
++	CCOC(=O)C1=C(C(=O)NCCN(CC)CC)C2C=CC1(C(Cc1ccccc1)Nc1c(F)cccc1F)O2 (stereo not drawn) [Compound 434]	++
++	COC(=O)C1=C(C(=O)NC2CCN(C)CC2)C2C=CC1(C(Cc1ccccc1)Nc1ccccc1F)O2 (stereo not drawn) [Compound 272]	+
++	CCN(CC)CCNC(=O)C1=C(C(=O)OC)C2(C(Cc3ccc(F)cc3)Nc3cc(F)cc(Cl)c3)C=CC1O2 (stereo not drawn) [Compound 453]	+
++	COC(=O)C1=C(C(=O)O)C2C=CC1(C(Cc1ccccc1)Nc1cc(F)cc(Cl)c1)O2 (stereo not drawn) [Compound 214]	+
+	COC(=O)C1=C(C(=O)N(C)CCN(C)C)C2C=CC1(C(Cc1ccccc1)Nc1ccccc1)O2 (stereo not drawn) [Compound 388]	+

— US11578079B2, “SUMO inhibitor compounds and uses thereof” (CITY OF HOPE, priority 2018, dated 2023)
